Assay results as given in ChEMBL document CHEMBL1240317, “Probing cell-division phenotype space and Polo-like kinase function using small molecules” (Nat Chem Biol, 2006).
Active and inactive are the calls of the source.

Assays:
Assay type in all cases: functional, cell-based
Conditions in all cases: Chlorocebus aethiops
BSC-1 [1] = assay: Induction of severe microtubule disruption in african green monkey BSC1 cells at 20 uM after 4 hrs by immunocytochemistry
BSC-1 [2] = assay: Induction of reduced mitotic index in african green monkey BSC1 cells at 20 uM after 4 hrs by immunocytochemistry
BSC-1 [3] = assay: Induction of deffects in mitotic spindle in african green monkey BSC1 cells at 20 uM after 4 hrs by immunocytochemistry

Measured: Activity

NC(=O)c1ccccc1Nc1nc(NCCCN2CCCC2=O)ncc1[N+](=O)[O-]
active: all assays above

O=C(c1ccccc1)c1ccccc1Nc1nc(Nc2ccc(Cl)c(Cl)c2)ncc1[N+](=O)[O-]
active: all assays above

O=[N+]([O-])c1cnc(Nc2ccc3[nH]ccc3c2)nc1NC1CCCC1
active: all assays above

O=[N+]([O-])c1cnc(Nc2ccc3[nH]ccc3c2)nc1Nc1ccc(Cl)c(Cl)c1
active: all assays above

c1ccc(-c2nccn2-c2ccnc(NC3CCCC3)n2)cc1
active: all assays above

O=C(c1ccccc1)c1ccccc1Nc1ncc([N+](=O)[O-])c(Nc2ccc(Cl)c(Cl)c2)n1
active: all assays above

O=[N+]([O-])c1cnc(-n2ccnc2-c2ccccc2)nc1NC1CCCC1
active: all assays above

O=C(c1ccccc1)c1ccccc1Nc1nc(Nc2ccc3ncsc3c2)ncc1[N+](=O)[O-]
active: all assays above

CCCCNc1ncc([N+](=O)[O-])c(Nc2ccccc2C(N)=O)n1
active: all assays above

O=[N+]([O-])c1cnc(NC2CCCC2)nc1Nc1ccc2ncsc2c1
active: all assays above

O=[N+]([O-])c1cnc(Nc2ccc3c(c2)CCC3)nc1Nc1ccc(Cl)c(Cl)c1
active: all assays above

CCCCNc1nc(Nc2ccc3[nH]ccc3c2)ncc1[N+](=O)[O-]
active: all assays above

O=C(c1ccccc1)c1ccccc1Nc1nc(NC2CCCC2)ncc1[N+](=O)[O-]
active: all assays above

O=[N+]([O-])c1cnc(NC(CO)Cc2ccccc2)nc1Nc1ccc(Cl)c(Cl)c1 (configuration not stated)
active: all assays above

CC(C)(Nc1ncc([N+](=O)[O-])c(NC2CCCC2)n1)c1ccccc1
active: all assays above

CC(=O)Nc1ccc(Nc2ccnc(Nc3ccncc3)n2)cc1
active: all assays above

CN1CCN(c2nccc(Nc3ccc4c(c3)OCO4)n2)CC1
active: all assays above

O=[N+]([O-])c1cnc(NC(CO)Cc2ccccc2)nc1Nc1ccc2ncsc2c1 (configuration not stated)
active: all assays above

NC(=O)c1ccccc1Nc1nc(NC2CCCC2)ncc1[N+](=O)[O-]
active: all assays above
